Data on 70 compounds can be found in patent US7329681B2, “Inhibitors of IMPDH enzyme” (Vertex Pharmaceuticals Incorporated, priority 1996, dated 2008).

Bounds are passed on as bounds.

The target in the first test is IMPDH human type II (Homo sapiens, UniProt P12268). Put plainly: IMPDH activity inhibition assay (spectrophotometric, NADH formation at 340 nm). It counts as biochemical.
Conditions: not given
The protocol:
We have measured the inhibition constants of each compound against IMPDH using an adaptation of the method first reported by […]. Moyed, and […]. Biol. Chem., 226, p. 339 (1957)]. We measured the inhibition constants of the compounds listed in Table III utilizing the following protocol: IMP dehydrogenase activity was assayed following an adaptation of the method first reported by […]. Moyed, H. S. and […]. Biol. Chem. 226, 339]. Enzyme activity was measured spectrophotometrically, by monitoring the increase in absorbance at 340 nm due to the formation of NADH (ε340 is 6220 M^-1 cm^-1). The reaction mixture contained 0.1 M Tris pH 8.0, 0.1 M KCl, 3 mM EDTA, 2 mM DTT, […] and enzyme (IMPDH human type II) at a concentration of 15 to 50 nM. This solution is incubated at 37° C. for 10 minutes. The reaction is started by adding NAD to a final concentration of 0.1 M and the initial rate is measured by following the linear increase in absorbance at 340 nm for 10 minutes. For reading in a standard spectrophotometer (path length 1 cm) the final volume in the cuvette is 1.0 ml. The assay has also been adapted to a 96 well microtiter plate format; in this case the concentrations of all the reagents remain the same and the final volume is decreased to 200 μl. For the analysis of inhibitors, the compound in question is dissolved in DMSO to a final concentration of 20 mM and added to the initial assay mixture for preincubation with the enzyme at a final volume of 2-5% (v/v). The reaction is started by the addition of NAD, and the initial rates measured as above. […] The designation “ND” is used where a given compound was not tested.
The term Ki denotes a measure of affinity in units of concentration, obtained from inhibition or displacement. `C=CCOC(=O)NCc1cccc(NC(=O)Nc2ccc(-c3cnco3)c(OC)c2)c1` [Compound 125] had a Ki of 1e-05 to 0.05 µM. Regarding `COc1cc(NC(=O)Nc2cccc(CNC(=O)Oc3cccnc3)c2)ccc1-c1cnco1` [Compound 137], the Ki is 0.051 to 1 µM. Turning to `COc1cc(NC(=O)Nc2cccc(CNC(=O)Oc3ccccc3)c2)ccc1-c1cnco1` [Compound 119], the Ki fell in the range of 1e-05 to 0.05 µM.

Staying with this test, now noted: IMPDH human type II, 15 to 50 nM enzyme, 37° C., tight-binding fit (Henderson); read-out: Ki.
In the case of `O=C(NCc1ccccc1)Nc1ccc(-c2cnco2)cc1` [Compound 1], the inhibition constant (Ki) lay within 1 to 10 µM. Take `O=C(Nc1ccc(Oc2ccccc2)cc1)Nc1ccc(-c2cnco2)cc1` [Compound 21]: the Ki lay within 1 to 10 µM. For the compound `CSc1cc(NC(=O)Nc2cccc(CNC(=O)O[C@H]3CCOC3)c2)ccc1C#N` [Compound 168], the inhibitory constant (Ki) fell in the range of 0.051 to 1 µM. Turning to `COCCOC(=O)NCc1cccc(NC(=O)Nc2ccc(-c3cnco3)c(OC)c2)c1` [Compound 130], the inhibition constant (Ki) was in the range of 1e-05 to 0.05 µM.

As to `O=C(O)Cc1cccc(NC(=O)Nc2ccc(-c3cnco3)cc2)c1` [Compound 54], the inhibitory constant (Ki) fell in the range of 1 to 10 µM. The same measure, in the same setting: for `N#Cc1cccc(NC(=O)Nc2ccc(-c3cnco3)cc2)c1` [Compound 8] the value was 1 to 10 µM; for `COc1cc(NC(=O)Nc2cccc(NC(=O)Nc3ccccc3)c2)ccc1-c1cnco1` [Compound 112], 0.051 to 1 µM. For `COc1cc(NC(=O)Nc2cccc(CNC(=O)OCC3CCNCC3)c2)ccc1-c1cnco1` [Compound 155], the Ki lay in the range of 1e-05 to 0.05 µM. Take `COc1cc(NC(=O)Nc2cccc(CNC(=O)OCC3CCOC(C)(C)O3)c2)ccc1-c1cnco1` (stereo not shown) [Compound 146]: the Ki is 1e-05 to 0.05 µM.

As to `COc1cc(NC(=O)Nc2cccc(NC(=O)OCc3ccccc3)c2)ccc1-c1cnco1` [Compound 83], the inhibition constant Ki fell in the range of 0.051 to 1 µM. As to `COc1cc(NC(=O)Nc2cccc(CNC(=O)OCc3cccs3)c2)ccc1-c1cnco1` [Compound 129], the Ki was 1e-05 to 0.05 µM. On the same count and under the same terms, under `COc1cc(NC(=O)Nc2cccc(N(C)C(C)=O)c2)ccc1C#N` [Compound 164] stands 0.051 to 1 µM. Still for that read-out and setting: under `O=C(Nc1ccc(-c2cnco2)cc1)Nc1ccc([N+](=O)[O-])c(C(F)(F)F)c1` [Compound 41] stands 1 to 10 µM.

Consider `COC(=O)Nc1cccc(NC(=O)Nc2ccc(-c3cnco3)c(Cl)c2)c1` [Compound 71], for which the inhibition constant Ki lay in the range of 1 to 10 µM.

In the case of `Cc1cccc(NC(=O)Nc2ccc(-c3cnco3)c(Br)c2)c1` [Compound 60], the Ki is 0.051 to 1 µM. Same read-out and setting: under `Cc1cc(N)cc(NC(=O)Nc2ccc(-c3cnco3)cc2)c1` [Compound 58] stands 1 to 10 µM; under `Cc1cc(NC(=O)Nc2ccc(-c3cnco3)cc2)ccc1[N+](=O)[O-]` [Compound 40], 1 to 10 µM. Still for that read-out and setting: for `O=C(Nc1ccc(-c2cnco2)cc1)Nc1ccsc1` [Compound 3] the value was 0.051 to 1 µM; for `NC(=O)c1cccc(NC(=O)Nc2ccc(-c3cnco3)cc2)c1` [Compound 51], above 10 µM; for `CC(C)(C)OC(=O)NCc1cccc(NC(=O)Nc2cccc(CNC(=O)OC(C)(C)C)c2)c1` [Compound 103], 1 to 10 µM. Consider `O=C(Nc1ccc(-c2cnco2)cc1)Nc1ccc2c(c1)OCCO2` [Compound 39], for which the Ki was above 10 µM. Same read-out and setting: under `COc1cc(NC(=O)Nc2cccc(CNC(=O)OC3CCCN(C(=O)OC(C)(C)C)C3)c2)ccc1-c1cnco1` (stereo not shown) [Compound 143] stands 0.051 to 1 µM; under `COc1cc(NC(=O)Nc2cccc(CNC(=O)OCC3CCN(C(=O)OC(C)(C)C)CC3)c2)ccc1-c1cnco1` [Compound 148], 1e-05 to 0.05 µM. As for `O=C(Nc1ccc(-c2cnco2)c(Cl)c1)Nc1cccs1` [Compound 68], the Ki lay within 0.051 to 1 µM.

As for `Cc1c(Cl)cccc1NC(=O)Nc1ccc(-c2cnco2)cc1` [Compound 10], the Ki is 1 to 10 µM. Turning to `COc1ccc(NC(=O)Nc2cccc(SC)c2)cc1OC` [Compound 38], the inhibition constant (Ki) is above 10 µM. For `COc1cc(NC(=O)Nc2cccc(CNC(=O)OC3COCOC3)c2)ccc1-c1cnco1` [Compound 126], the Ki lay within 1e-05 to 0.05 µM. Turning to `O=C(Nc1ccc(-c2cnco2)cc1)Nc1cccc(O)c1` [Compound 27], the inhibition constant (Ki) lay in the range of 1 to 10 µM.

On to `COc1cc(NC(=O)Nc2cccc(CNC(=O)OC[C@@H]3CNC(=O)O3)c2)ccc1-c1cnco1` [Compound 122], for which the inhibition constant Ki fell in the range of 1e-05 to 0.05 µM. With `COc1cc(NC(=O)Nc2cccc(N(C)C(C)=O)c2)ccc1-c1cnco1` [Compound 107], the Ki was 1e-05 to 0.05 µM. Same read-out and setting: under `Cc1cccc(NC(=O)Nc2ccc(-c3ocnc3C)c(Cl)c2)c1` [Compound 76] stands 1 to 10 µM.

Consider `COc1cc(NC(=O)Nc2cccc(NC(=O)Oc3ccccc3)c2)ccc1-c1cnco1` [Compound 99], for which the Ki was in the range of 1e-05 to 0.05 µM. Turning to `COc1cc(NC(=O)Nc2cccc(CNC(=O)OCC3CCCCO3)c2)ccc1-c1cnco1` (stereo not shown) [Compound 154], the Ki was in the range of 1e-05 to 0.05 µM. On the same count and under the same terms, for `O=C(Nc1ccc(-c2cnco2)cc1)Nc1cccc(Br)c1` [Compound 7] the value was 0.051 to 1 µM; for `O=C(Nc1ccc(-c2cnco2)cc1)Nc1cccc(S(=O)(=O)Nc2ccccc2)c1` [Compound 82], 1 to 10 µM; for `COc1ccc(C)cc1NC(=O)Nc1ccc(-c2cnco2)cc1` [Compound 11], 1 to 10 µM. Consider `COc1cc(NC(=O)Nc2cccc(NC(=O)c3ccccc3)c2)ccc1-c1cnco1` [Compound 110], for which the Ki is 0.051 to 1 µM. On the same count and under the same terms, under `Cc1cccc(NC(=O)Nc2ccc(-c3cnco3)c(CO)c2)c1` [Compound 102] stands 1 to 10 µM; under `COc1cc(NC(=S)Nc2cccc(C)c2)ccc1-c1cnco1` [Compound 115], 0.051 to 1 µM; under `O=C(Nc1ccc(-c2cnco2)cc1)Nc1ccc(F)c([N+](=O)[O-])c1` [Compound 104], 1 to 10 µM. Same read-out and setting: for `Nc1cccc(NC(=O)Nc2ccc(-c3cnco3)cc2)c1` [Compound 24] the value was 0.051 to 1 µM; for `COc1cc(NC(=O)Nc2cccc(CNC(=O)OC3CCCC3)c2)ccc1-c1cnco1` [Compound 133], 1e-05 to 0.05 µM; for `CSc1cc(NC(=O)Nc2cccc(CNC(=O)O[C@H]3CCOC3)c2)ccc1C#N` [Compound 165], 1e-05 to 0.05 µM. Take `Cc1cc(NC(=O)Nc2ccc(-c3cnco3)c(Cl)c2)ccn1` [Compound 62]: the Ki was in the range of 1 to 10 µM. As for `CC(=O)Nc1cccc(NC(=O)Nc2ccc(-c3cnco3)c(Cl)c2)c1` [Compound 72], the Ki lay within 1 to 10 µM. In the case of `COc1cc(NC(=O)Nc2cccc(NC(=O)Cc3ccccc3)c2)ccc1-c1cnco1` [Compound 111], the inhibition constant Ki lay within 1e-05 to 0.05 µM. Same read-out and setting: for `COc1ccc(NC(=O)Nc2cccc(Br)c2)cc1OC` [Compound 34] the value was 1 to 10 µM. On the same count and under the same terms, for `COC(=O)c1cc(NC(=O)Nc2cccc([N+](=O)[O-])c2)ccc1-c1cnco1` [Compound 89] the value was 1 to 10 µM; for `COc1cc(NC(=O)Nc2cccc(CNC(=O)OCC3CCCNC3)c2)ccc1-c1cnco1` (stereo not shown) [Compound 158], 0.051 to 1 µM. With `CC(=O)N(C)c1cccc(NC(=O)Nc2ccc(C#N)c(S(C)(=O)=O)c2)c1` [Compound 166], the Ki is above 10 µM.

As to `COc1cc(NC(=O)Nc2cccc(NC(=O)C(F)(F)F)c2)ccc1-c1cnco1` [Compound 96], the inhibition constant (Ki) lay in the range of 0.051 to 1 µM. For `COc1cc(NC(=O)Nc2cccc(CNC(=O)OCc3ccccn3)c2)ccc1-c1cnco1` [Compound 121], the inhibition constant Ki lay in the range of 1e-05 to 0.05 µM. Turning to `Cc1cnc(NC(=O)Nc2ccc(-c3cnco3)cc2)s1` [Compound 31], the inhibition constant Ki was above 10 µM. `O=C(O)Cc1cccc(NC(=O)Nc2ccc(-c3cnco3)c(Cl)c2)c1` [Compound 63]: the inhibition constant Ki fell in the range of 1 to 10 µM. The same measure, in the same setting: for `COc1cc(NC(=O)Nc2cccc(N)c2)ccc1-c1cnco1` [Compound 59] the value was 1e-05 to 0.05 µM; for `O=C(Nc1ccc(-c2cnco2)cc1)Nc1cccc(C(F)(F)F)c1` [Compound 18], 1 to 10 µM; for `COc1cc(NC(=O)Nc2ccc3c(c2)N(C(C)=O)CC3)ccc1-c1cnco1` [Compound 106], 0.051 to 1 µM. On to `COC(=O)c1cc(NC(=O)Nc2cccc(C)c2)ccc1-c1cnco1` [Compound 88], for which the inhibition constant (Ki) is 1 to 10 µM. Still for that read-out and setting: under `COc1ccc(NC(=O)Nc2cccc(C)c2)cc1CO` [Compound 90] stands 1 to 10 µM; under `COc1cc(NC(=O)Nc2cccc(CNC(=O)OCCCSC)c2)ccc1-c1cnco1` [Compound 145], 1e-05 to 0.05 µM.

For the compound `COc1cc(NC(=O)Nc2cccc(NC(=O)C(F)F)c2)ccc1-c1cnco1` [Compound 100], the Ki lay within 0.051 to 1 µM. Same read-out and setting: under `COC(=O)Cc1cccc(NC(=O)Nc2ccc(-c3cnco3)cc2)c1` [Compound 47] stands 0.051 to 1 µM; under `Cc1cccc(NC(=O)Nc2ccc(-c3cnco3)c(N)c2)c1` [Compound 109], 0.051 to 1 µM. Still for that read-out and setting: under `COc1cc(NC(=O)Nc2cccc(CNC(=O)OC3CCCNC3)c2)ccc1-c1cnco1` (stereo not shown) [Compound 153] stands 1e-05 to 0.05 µM; under `COc1cc(NC(=O)Nc2cccc(CNC(=O)OC3CCCSC3)c2)ccc1-c1cnco1` (stereo not shown) [Compound 161], 1e-05 to 0.05 µM.

As to `O=C(Nc1ccc(-c2cnco2)cc1)Nc1ccc(F)c(Cl)c1` [Compound 23], the Ki fell in the range of 1 to 10 µM. In the case of `COc1ccccc1NC(=O)Nc1ccc(-c2cnco2)cc1` [Compound 12], the Ki lay within 1 to 10 µM.
